Test results: the NIST ThermoML archive (doi:10.1016/j.jct.2014.07.026)

Test: mn = molality of the nth substance listed, in mol/kg
Settings: 100 kPa, Liquid; for mass density: Vibrating tube method; for speed of sound: Frequency=2 MHz, Linear variable-path acoustic interferometer

CC(C)[C@H](N)C(=O)[O-].CCCCn1cc[n+](C)c1 [1-butyl-3-methylimidazolium L-valinate] + O
Settings	mass density [kg/m3]	speed of sound [m/s]
293.15 K, m1 = 0.03333	999.132	–
293.15 K, m1 = 0.05233	999.647	–
293.15 K, m1 = 0.07111	1000.15	–
293.15 K, m1 = 0.08607	1000.55	–
293.15 K, m1 = 0.1001	1000.93	–
293.15 K, m1 = 0.138	1001.93	–
293.15 K, m1 = 0.1804	1003.02	–
293.15 K, m1 = 0.2187	1004	–
293.15 K, m1 = 0.2653	1005.21	–
293.15 K, m1 = 0.3295	1006.77	–
293.15 K, m1 = 0.3595	1007.51	–
293.15 K, m1 = 0.4046	1008.61	–
293.15 K, m1 = 0.4561	1009.85	–
298.15 K, m1 = 0.03333	997.952	–
298.15 K, m1 = 0.05233	998.454	–
298.15 K, m1 = 0.06361	–	1509.7
298.15 K, m1 = 0.07111	998.947	–
298.15 K, m1 = 0.08607	999.329	–
298.15 K, m1 = 0.1001	999.708	–
298.15 K, m1 = 0.1178	–	1519.6
298.15 K, m1 = 0.138	1000.66	–
298.15 K, m1 = 0.1494	–	1525.3
298.15 K, m1 = 0.1804	1001.72	–
298.15 K, m1 = 0.2009	–	1534.4
298.15 K, m1 = 0.2187	1002.66	–
298.15 K, m1 = 0.2467	–	1542.1
298.15 K, m1 = 0.2653	1003.87	–
298.15 K, m1 = 0.2965	–	1550.5
298.15 K, m1 = 0.3295	1005.34	–
298.15 K, m1 = 0.3434	–	1558.2
298.15 K, m1 = 0.3595	1006.08	–
298.15 K, m1 = 0.4046	1007.11	–
298.15 K, m1 = 0.4049	–	1568.3
298.15 K, m1 = 0.4496	–	1575.2
298.15 K, m1 = 0.4561	1008.32	–
298.15 K, m1 = 0.513	–	1584.9
298.15 K, m1 = 0.5714	–	1593.8
303.15 K, m1 = 0.03333	996.535	–
303.15 K, m1 = 0.05233	997.021	–
303.15 K, m1 = 0.07111	997.503	–
303.15 K, m1 = 0.08607	997.878	–
303.15 K, m1 = 0.1001	998.242	–
303.15 K, m1 = 0.138	999.178	–
303.15 K, m1 = 0.1804	1000.22	–
303.15 K, m1 = 0.2187	1001.13	–
303.15 K, m1 = 0.2653	1002.26	–
303.15 K, m1 = 0.3295	1003.73	–
303.15 K, m1 = 0.3595	1004.44	–
303.15 K, m1 = 0.4046	1005.44	–
303.15 K, m1 = 0.4561	1006.67	–
308.15 K, m1 = 0.03234	994.871	–
308.15 K, m1 = 0.05133	995.354	–
308.15 K, m1 = 0.06493	995.698	–
308.15 K, m1 = 0.08884	996.286	–
308.15 K, m1 = 0.1058	996.698	–
308.15 K, m1 = 0.1347	997.389	–
308.15 K, m1 = 0.181	998.492	–
308.15 K, m1 = 0.2182	999.371	–
308.15 K, m1 = 0.2583	1000.3	–
308.15 K, m1 = 0.3177	1001.66	–
308.15 K, m1 = 0.3591	1002.6	–
308.15 K, m1 = 0.4041	1003.61	–
308.15 K, m1 = 0.4561	1004.69	–
313.15 K, m1 = 0.03234	993.036	–
313.15 K, m1 = 0.05133	993.509	–
313.15 K, m1 = 0.06493	993.842	–
313.15 K, m1 = 0.08884	994.427	–
313.15 K, m1 = 0.1058	994.828	–
313.15 K, m1 = 0.1347	995.499	–
313.15 K, m1 = 0.181	996.579	–
313.15 K, m1 = 0.2182	997.425	–
313.15 K, m1 = 0.2583	998.325	–
313.15 K, m1 = 0.3177	999.623	–
313.15 K, m1 = 0.3591	1000.51	–
313.15 K, m1 = 0.4041	1001.5	–
313.15 K, m1 = 0.4561	1002.64	–
